# From patent US6455074B1, “Methods for fabricating polymer-based controlled release devices” (Alkermes Controlled Therapeutics, Inc., priority 1997, dated 2002)
# System: estrous cycle of the rat
# Assay: Rat Estrous Cyclicity Model
# Assay type: in vivo
# Description: The Rat Estrous Cyclicity Model is described in detail in Hahn et al., Biological Assays Utilized to Characterize LHRH and its Analogs. In: LHRH and its Analogs, Contraception and Therapeutic Applications (Eds. Vickery B H, Nestor J J, and Hafez ESE), pp. 49-60. MTP Press Ltd, Lancaster, England, 1984, the contents of which are incorporated herein by reference. The model is used to assess the pharnacodynamic effect which an effective serum level of azaline B (at least 2.0 ng/ml), provided by the administration of a sustained release device of the invention, has on the estrous cycle of the rat. When the minimum effective concentration of azaline B is present in serum, the estrus phase of the estrous cycle of the rat is suppressed and the rat remains in the diestrus phase of the estrous cycle.
# Microparticles containing an effective amount of azaline B were prepared according to the “Particulate Method,” described above, and the methods of Examples 1 and 3. The presence of azaline B activity was measured as the percent of a test group which remained in the diestrus phase of the estrous cycle. Animals were subcutaneously injected with equal amounts of azaline B either encapsulated in a microparticle or unencapsulated. […] The results are depicted in FIGS. 1 and 2 which show a plot of the percent of animals per treatment group in diestrus for each formulation evaluated versus time.
substance,measurement,value
Ac-D-Nal′-D-Cpa^2-D-Pal^3-Ser^4-Aph^5(atz)-D-Aph^6(atz)-Leu^7-Ilys^8-Pro^9-D-Ala^10 [azaline B],effective serum level of azaline B (minimum effective concentration suppressing estrus phase),at least 2.0 ng/ml
